Test system: Preadipocyte cell line 3T3-L1
Test: Induction of differentiation into adipocytes (amount of triglyceride biosynthesis)
Assay type: cell-based
Settings: isolated compounds at final 1-30 μM; seven days after addition
Description: The induction of differentiation into adipocytes was carried out by partially modifying the method of Rubin C. S. et al. (J. Biol. Chem., Vol. 253, No. 20, p7570-7578 (1978)). Preadipocyte cell line 3T3-L1 (ATCC CCL-92.1) was suspended in a 10% fetal bovine serum (manufactured by GIBCO)-containing Dulbecco's modified Eagle's medium (manufactured by Sigma, D6046) containing 200 μM ascorbic acid (hereinafter referred to as A-D-MEM medium) so as to have a density of 4×10^3 cells/mL, and the suspension was put in each well of a 12-well microtiter plate in an amount of 2 mL per well. The cells were cultured at 37° C. for 7 days in the presence of 5% carbon dioxide gas. The medium was exchanged with the same medium on the second day and the fourth day. On the seventh day, the medium was exchanged with A-D-MEM medium containing 0.25 μM dexamethasone. […] Here, there were set a group with addition of 4 μL of a 5 mg/mL aqueous solution of insulin (manufactured by TAKARA BIO INC.) as a positive control, and a group with addition of dimethyl sulfoxide as a negative control. After 45 hours, the medium was exchanged with A-D-MEM medium. […] The cells were cultured for additional 7 days.
The amount of triglyceride in the adipocytes was determined as an index for inducing differentiation into matured adipocytes, and as evaluation of insulin-mimetic action. After the termination of the culture, the medium was removed, and the cells were washed twice with a phosphate buffered saline. One milliliter of a solvent of hexane: isopropanol=3:2 was added thereto. The mixture was allowed to stand at room temperature for 30 minutes, and thereafter the supernatant was collected. The procedures were repeated again, and 2 mL of the resulting supernatant was concentrated to dryness. The precipitate was dissolved in 100 μL of isopropanol, and thereafter the amount of triglyceride contained in 10 μL of the resulting solution was determined with Triglyceride E-Test (manufactured by Wako Pure Chemical Industries, Ltd., code 432-40201). All of the determinations were carried out twice.
Specifically, as a sample, there was set a group with addition of the dimethyl sulfoxide solution of the extract from the root portion of Angelica keiskei koidz. with the 40% aqueous ethanol solution at a final concentration of 0.1% or 0.033%, the dimethyl sulfoxide solution of the extract from the root portion of Angelica keiskei koidz. with the 50% aqueous ethanol solution at a final concentration of 0.033% or 0.011%, the dimethyl sulfoxide solution of the extract from the root portion of Angelica keiskei koidz. with the 70% aqueous ethanol solution at a final concentration of 0.022%, the dimethyl sulfoxide solution of the extract from the root portion of Angelica keiskei koidz. with the 60% or 80% aqueous ethanol solution or the dimethyl sulfoxide solution of the extract with the 100% ethanol so as to have a final concentration of 0.067% or 0.022%, respectively, to each well. Here, there were set a group with addition of 4 μL of a 5 mg/mL aqueous solution of insulin (manufactured by TAKARA BIO INC.) as a positive control, and a group with addition of dimethyl sulfoxide as a negative control. Thereafter, the medium and the sample were exchanged in the same manner as in the method described in Example 5, and after seven days from the addition of the sample, the amount of triglyceride in the adipocytes was determined.
Here, there were set a group with addition of 4 μL of a 5 mg/mL aqueous solution of insulin (manufactured by TAKARA BIO INC.) as a positive control, and a group with addition of dimethyl sulfoxide as a negative control. Thereafter, the medium and the sample were exchanged in the same manner as in the method described in Example 5, and after seven days from the addition of the sample, the amount of triglyceride in the adipocytes was determined.

## CC(C)=CCc1c(O)ccc(C(=O)/C=C/c2ccc(O)cc2)c1O [Isobavachalcone, isobavachalcone]
  induction of biosynthesis of triglyceride (inducing action on differentiation into mature adipocytes): induction of biosynthesis of triglyceride was found

## xanthoangelol H
  induction of biosynthesis of triglyceride (inducing action on differentiation into mature adipocytes): induction of biosynthesis of triglyceride was found
